“Also recorded” adds a separate entry of the source. Where two headings read alike, the source gives them in different places.
Key:
[1] = test system: A549 (non-small cell lung); test: Antiproliferative activity, NCI protocol; assay type: cell-based, human
Method: (§1) Organochalcogen derivatives prepared herein were evaluated in vitro as potential antiproliferative agents, using a panel of six human tumour cell lines: A549 (non-small cell lung), HBL-100 (breast), HeLa (cervix), SW1573 (non-small cell lung), as drug sensitive lines, T-47D (breast) and WiDr (colon) as drug resistant lines. In addition to precursors 2, 6, 7, 13, 14, 17, 19, ebselen and cisplatin (CDDP) were used as reference drugs. […] In both cases, the NCI protocol, with minor modifications, was followed; selected data, including the selectivity index (S.I.) can be found in Table 3 and full data in Supporting Information (Table S1).
(§2) The in vitro antiproliferative activity was assayed using minor modifications of the protocol of the National Cancer Institute (NCI) of the United States against the six human solid tumor cell and the non-tumor cell lines tested.

HBL-100 (breast) = test: Antiproliferative activity, NCI protocol; assay type: cell-based, human
Method: as §1, §2

HeLa (cervix) = test: Antiproliferative activity, NCI protocol; assay type: cell-based, human
Method: as §1, §2

[2] = test system: SW1573 (non-small cell lung); test: Antiproliferative activity, NCI protocol; assay type: cell-based, human
Method: as §1, §2

T-47D (breast) = test: Antiproliferative activity, NCI protocol; assay type: cell-based, human; conditions: read-out: GI50 T-47D (Breast)
Method: as §1, §2

WiDr (colon) = test: Antiproliferative activity, NCI protocol; assay type: cell-based, human; conditions: read-out: GI50 WiDr (Colon)
Method: as §1, §2

[3] = Free radical scavenging (DPPH method); conditions: 30 min incubation, absorbance at 515 nm, read-out: EC50 antiradical activity (DPPH)
Method: (§3) In vitro antioxidant properties of key unprotected phenolic derivatives were analyzed using two different methodologies: free radical scavenging capacity, using the DPPH method (2,2-diphenyl-1-picrylhydrazyl), a HAT (hydrogen atom transfer) procedure, widely-used for both natural and synthetic derivatives, and also the capacity for scavenging H2O2, one of the most common ROS in degenerative diseases, including cancer.
DPPH is a commercially-available stable free radical commonly used for in vitro testing of radical scavenging properties of antioxidants.
Reported methodology was used with minor modifications. To a 60 µM methanolic DPPH solution (1.17 mL), the antioxidant solution (5–7 different solutions, 30 µL) or solvent (control, 30 µL) were added. After 30 min. of incubation in the dark, absorbance was measured at 515 nm, and EC50 values were calculated.

[4] = H2O2 scavenging (phenol red / horseradish peroxidase); conditions: At 50 µM
Method: as §3
Herein, following Bahorun’s methodology, in vitro levels of H2O2 were measured in an indirect fashion, by registering the H2O2-mediated oxidation of phenol red in the presence of horseradish peroxidase, to give a chromophore with a maximum absorption at 610 nm. Accordingly, in the presence of an antioxidant agent, there is an inverse correlation between the observed absorbance, and the scavenging properties. Table 2 depicts the H2O2-scavenging properties of compounds prepared herein, and tested at a final 50 µM concentration.
Reported methodology was used with minor modifications.

[5] = test system: six human tumour cell lines (A549, HBL-100, HeLa, SW1573, T-47D, WiDr); test: Antiproliferative activity, panel of six human tumour cell lines; assay type: cell-based; conditions: summary over the tested tumour cell lines, highest tested concentration 100 µM
Method: as §1, §2

SW1573 = test: P-glycoprotein assay, wild type line; assay type: cell-based; conditions: Homo sapiens, 48 h exposure
Method: (§4) This assay allows prediction of whether a certain chemotherapeutic agent could develop chemoresistance when behaving as a P-gp substrate, one of the most common efllux-pumps used for the extrusion of cell xenobiotics. For that purpose, a cell line-based assay was used, in particular the lung cancer cell line in its wild type (SW1573), and its variant overexpressing P-gp (Sw1573/Pgp). Moreover, compounds were tested in the presence and in the absence of verapamil, which is known to inhibit P-gp. Chemotherapeutic agents paclitaxel (PTX) and vinblastine (VB) are used herein as reference compounds. In this assay, the resistance factor (Rf) for a certain compound is defined as the ratio of GI50 in the cell line overexpressing P-gp and the wild one (Table 4), high values of Rf denoting that the compound behaves as a P-gp substrate, and thus, chemoresistance through this mechanism will probably take place.

[6] = P-glycoprotein assay, line overexpressing P-gp; assay type: cell-based, human; conditions: human, 48 h exposure
Method: as §4

SW1573/Pgp = test: P-glycoprotein assay, line overexpressing P-gp; assay type: cell-based, human; conditions: ratio between GI50 values in SW1573/PGP and SW1573 cells; for Rf w Verapamil: with verapamil; for Rf w/o Verapamil: without verapamil
Method: as §4

[7] = Homo sapiens, A549; read-out: GI50 A549 (Lung)
[8] = Homo sapiens, HBL-100; read-out: GI50 HBL-100 (Breast)
[9] = Homo sapiens, HeLa; read-out: GI50 HeLa (Cervix)
[10] = Homo sapiens, SW1573, Table S1, read-out: GI50 SW1573 (Lung)
[11] = Homo sapiens, T47D, drug resistant line
[12] = Homo sapiens, WiDr, drug resistant line
[13] = Homo sapiens, A549, read-out: GI50 A549 (Lung)
[14] = Homo sapiens, HBL-100, read-out: GI50 HBL-100 (Breast)
[15] = Homo sapiens, HeLa, read-out: GI50 HeLa (Cervix)
[16] = Homo sapiens, SW1573, read-out: GI50 SW1573 (Lung)
[17] = with verapamil, read-out: GI50 SW153 w Verapamil
[18] = without verapamil, read-out: GI50 SW1573 w/o Verapamil
[19] = with verapamil (concentration not stated), with verapamil, read-out: GI50 SW1573/PGP w Verapamil
[20] = without verapamil, read-out: GI50 SW1573/PGP w/o Verapamil
[21] = with verapamil, reference drugs, read-out: GI50 SW153 w Verapamil
[22] = without verapamil, reference drugs, read-out: GI50 SW1573 w/o Verapamil
[23] = with verapamil (concentration not stated), with verapamil, reference drugs, read-out: GI50 SW1573/PGP w Verapamil

Compound	GI50 [1, 7]	GI50 (HBL-100 (breast); [8])	GI50 (HeLa (cervix); [9])	GI50 [2, 10]	GI50 (T-47D (breast); [11])	GI50 (WiDr (colon); [12])	EC50 [3]	also measured
3-phenylselenopropanoic acid [Compound 17]	–	–	–	–	–	–	–	GI50 ([1]; read-out: GI50 A549 (Lung)): > 100 µM; GI50 (HBL-100 (breast); read-out: GI50 HBL-100 (Breast)): > 100 µM; GI50 (HeLa (cervix); read-out: GI50 HeLa (Cervix)): > 100 µM; GI50 ([2]; Table S1, read-out: GI50 SW1573 (Lung)): > 100 µM; GI50 (T-47D (breast); drug resistant line): > 100 µM; GI50 (WiDr (colon); drug resistant line): > 100 µM
O=C(O)CCCSSCCCC(=O)O [Compound 2, 4,4′-Dithiobisbuthyric acid]	> 100 µM	> 100 µM	> 100 µM	> 100 µM	> 100 µM	> 100 µM	–	–
O=C1CCCSSCCCC(=O)Oc2cc(CCO)ccc2O1 [Compound 4, [4”-(2”‘-Hydroxyethyl)-1”,2”-phenylene]-4,4’-dithiobisbutyrate]	> 100 µM	> 100 µM	> 100 µM	> 100 µM	> 100 µM	> 100 µM	> 175 µM	% Scavenging of H2O2 [4]: complete loss of ROS scavenging properties; also recorded: --- ^2
O=C(O)CSSCC(=O)O [Compound 6, Dithiodiacetic acid]	> 100 µM	> 100 µM	> 100 µM	> 100 µM	> 100 µM	> 100 µM	–	–
O=C(O)CCSSCCC(=O)O [Compound 7, 3,3′-Dithiobispropionic acid]	> 100 µM	> 100 µM	> 100 µM	> 100 µM	> 100 µM	> 100 µM	–	–
O=C(CCSSCCC(=O)NCCc1ccc(O)c(O)c1)NCCc1ccc(O)c(O)c1 [Compound 9, 3,3′-Dithiobis{N-[2′’-(3′’’,4′’’-dihydroxyphenyl)ethyl]propanamide}]	32 ± 1 µM	31 ± 7 µM	28 ± 2 µM	42 ± 6 µM	45 ± 19 µM	> 100 µM	4.2 ± 0.1 µM	GI50 ([5]; Homo sapiens, read-out: GI50 over the tumour cell lines (range, bound or words)): < 45 µM
O=C(O)CC[Se][Se]CCC(=O)O [Compound 13, 3,3′-Diselenobispropanoic acid]	4.1 ± 0.1 µM	94 ± 8 µM	18 ± 1 µM	> 100 µM	20 ± 8 µM	5.6 ± 0.6 µM	–	–
O=C(O)CCC[Se][Se]CCCC(=O)O [Compound 14, 4,4′-Diselenobisbutyric acid]	–	–	–	–	–	–	–	GI50 [1, 13]: 46 ± 14 µM; GI50 (HBL-100 (breast); [14]): > 100 µM; GI50 (HeLa (cervix); [15]): 44 ± 13 µM; GI50 [2, 16]: > 100 µM; GI50 (T-47D (breast); Homo sapiens, T47D): 50 ± 14 µM; GI50 (WiDr (colon); Homo sapiens, WiDr): 54 ± 6 µM
O=C(CC[Se][Se]CCC(=O)NCCc1ccc(O)c(O)c1)NCCc1ccc(O)c(O)c1 [Compound 15, 3,3′-Diselenobis{N-[2′’-(3′’’,4′’’-dihydroxyphenyl)ethyl]propanamide}]	5.4 ± 1.1 µM	29 ± 6 µM	3.6 ± 1.1 µM	5.9 ± 1.3 µM	39 ± 5 µM	31 ± 7 µM	7.8 ± 0.2 µM	% Scavenging of H2O2 [4]: 40.0 ± 3.1%; GI50 (SW1573; [17]): 5 ± 0.7 µM; GI50 (SW1573; [18]): 3.3 ± 0.4 µM; GI50 at 48 h [6, 19]: 5.3 ± 0.3 µM; GI50 at 48 h [6, 20]: 5 ± 0.1 µM; Rf w Verapamil (SW1573/Pgp): 1.1; Rf w/o Verapamil (SW1573/Pgp): 1.5
N#C[Se]CCC(=O)O [Compound 19, 3-Selenocyanatopropanoic acid]	–	–	–	–	–	–	–	GI50 [1, 13]: 18 ± 6 µM; GI50 (HBL-100 (breast); [14]): 93 ± 9 µM; GI50 (HeLa (cervix); [15]): 32 ± 10 µM; GI50 [2, 16]: > 100 µM; GI50 (T-47D (breast); Homo sapiens, T47D): 36 ± 1 µM; GI50 (WiDr (colon); Homo sapiens, WiDr): 28 ± 4 µM
O=c1c2ccccc2[se]n1CCc1ccc(O)c(O)c1 [Compound 26, N-[2′-(3′’,4′’-Dihydroxyphenyl)ethyl]-1,2-benzisoselenazole-3(2H)-one]	–	–	–	–	–	–	7.8 ± 0.2 µM	GI50 [1, 13]: 21 ± 7 µM; GI50 (HBL-100 (breast); [14]): 21 ± 4 µM; GI50 (HeLa (cervix); [15]): 21 ± 6 µM; GI50 [2, 16]: 21 ± 12 µM; GI50 (T-47D (breast); Homo sapiens, T47D): 28 ± 6 µM; GI50 (WiDr (colon); Homo sapiens, WiDr): 30 ± 3 µM; GI50 over the tumour cell lines (range, bound or words) [5]: moderate antiproliferative properties
c1ccc(C[Se]CCc2ccc3c(c2)OCO3)cc1 [Compound 38, 1-Benzylseleno-2-(3’, 4’-methylenedioxyphenyl)ethane]	19 ± 2 µM	14 ± 3 µM	5.2 ± 1 µM	27 ± 5 µM	4.7 ± 1.2 µM	14 ± 2 µM	–	GI50 (SW1573; [17]): 15 ± 3 µM; GI50 (SW1573; [18]): 27 ± 2 µM; GI50 at 48 h [6, 19]: 25 ± 2 µM; GI50 at 48 h [6, 20]: 29 ± 0.2 µM; Rf w Verapamil (SW1573/Pgp): 1.6; Rf w/o Verapamil (SW1573/Pgp): 1.1
c1cc2c(cc1CCC[Se][Se]CCCc1ccc3c(c1)OCO3)OCO2 [Compound 41, Bis[3-(3’, 4’-methylenedioxyphenyl)propyl]diselenide]	–	–	–	–	–	–	–	GI50 [1, 13]: 32 ± 8 µM; GI50 (HBL-100 (breast); [14]): 93 ± 10 µM; GI50 (HeLa (cervix); [15]): 31 ± 8 µM; GI50 [2, 16]: 37 ± 15 µM; GI50 (T-47D (breast); Homo sapiens, T47D): 29 ± 5 µM; GI50 (WiDr (colon); Homo sapiens, WiDr): 29 ± 8 µM; GI50 over the tumour cell lines (range, bound or words) [5]: only a moderate antiproliferative agent
NCCc1ccc(O)c(O)c1 [Dopamine, dopamine, reference compound]	–	–	–	–	–	–	11.4 ± 1.2 µM	% Scavenging of H2O2 [4]: 46.1 ± 4.6%
O=c1c2ccccc2[se]n1-c1ccccc1 [Ebselen, 2-phenyl-1,2-benzoselenazol-3-one, reference compound]	25 ± 9 µM	13 ± 3 µM	26 ± 8 µM	28 ± 4 µM	90 ± 14 µM	> 100 µM	–	–
OCCc1ccc(O)c(O)c1 [HT, hydroxytyrosol, reference compound]	–	–	–	–	–	–	13.4 ± 0.6 µM	–
CC(=O)O[C@H]1C(=O)[C@@]2(C)[C@H]([C@H](OC(=O)c3ccccc3)[C@]3(O)C[C@H](OC(=O)[C@H](O)[C@@H](NC(=O)c4ccccc4)c4ccccc4)C(C)=C1C3(C)C)[C@]1(OC(C)=O)CO[C@@H]1C[C@@H]2O [PTX, paclitaxel, reference compound]	–	–	–	–	–	–	–	GI50 (SW1573; [21]): 0.0016 ± 0.0002 µM; GI50 (SW1573; [22]): 0.0015 ± 0.0005 µM; GI50 at 48 h [6, 23]: 0.0042 ± 0.0009 µM; Rf w Verapamil (SW1573/Pgp): 2.6; Rf w/o Verapamil (SW1573/Pgp): 128
CC[C@]1(O)C[C@@H]2CN(CCc3c([nH]c4ccccc34)[C@@](C(=O)OC)(c3cc4c(cc3OC)N(C)[C@H]3[C@@](O)(C(=O)OC)[C@H](OC(C)=O)[C@]5(CC)C=CCN6CC[C@]43[C@@H]65)C2)C1 [VB, vinblastine, reference compound]	–	–	–	–	–	–	–	GI50 (SW1573; [21]): 0.0008 ± 0.0002 µM; GI50 (SW1573; [22]): 0.0009 ± 0.0003 µM; GI50 at 48 h [6, 23]: 0.001 ± 0.0005 µM; Rf w Verapamil (SW1573/Pgp): 1.3; Rf w/o Verapamil (SW1573/Pgp): 2388
